Read-outs that look alike come from different tables or passages of the source.
Experiments:
Assay type in all cases: cell-based
[1] = tested on: renal carcinoma cells (786-O); assay: In vitro potency (CellTiter-Glo, 96 h) on 786-O; conditions: read-out: 786-O IC50
Experimental: (§1) In vitro potency was assessed on multiple cancer cell lines. All cell lines were authenticated by STR profiling at IDEXX Bioresearch and cultured for no more than 2 months after resuscitation. Cells cultured in log-phase growth were seeded for 24 hours in 96-well plates containing […] RPMI 1640 supplemented with 20% FBS. Serial dilutions of antibody-drug conjugates in cell culture media were prepared at 4x working concentrations, and 50 μL of each dilution was added to the 96-well plates. Following addition of test articles, cells were incubated with test articles for 4 days at […]. After 96 hours, growth inhibition was assessed by CellTiterGlo® (Promega, Madison, WI) and luminescence was measured on a plate reader.
(§2) Cell viability was determined by CellTiter-Glo staining after 96h exposure to ADC. ND=Not Determined. In the following tables, “Ex_” refers to a drug linker number. For example, “Ag4-Ex_4a” refers to a conjugate of an Ag4 antibody with drug linker 4a.

melanoma cells (A2058) = assay: In vitro potency (CellTiter-Glo, 96 h) on A2058; conditions: read-out: A2058 IC50
Experimental: as §1, §2

[2] = tested on: pancreatic cancer cells (BxPC3); assay: In vitro potency (CellTiter-Glo, 96 h) on BxPC3; conditions: read-out: BxPC3 IC50
Experimental: as §1, §2

[3] = tested on: non-small-cell lung cancer cells (Calu1); assay: In vitro potency (CellTiter-Glo, 96 h) on Calu1; conditions: read-out: Calu1 IC50
Experimental: as §1, §2

[4] = tested on: anaplastic large cell lymphoma cells (DEL); assay: In vitro potency (CellTiter-Glo, 96 h) on DEL; conditions: 96 h, read-out: DEL IC50
Experimental: as §1, §2

[5] = tested on: anaplastic large cell lymphoma cells (DELBVR); assay: In vitro potency (CellTiter-Glo, 96 h) on DELBVR; conditions: read-out: DELBVR IC50
Experimental: as §1, §2

[6] = tested on: anaplastic large cell lymphoma cells (Karpas299); assay: In vitro potency (CellTiter-Glo, 96 h) on Karpas299; conditions: read-out: Karpas299 IC50
Experimental: as §1, §2

[7] = tested on: Hodgkin's lymphoma cells (L540cy); assay: In vitro potency (CellTiter-Glo, 96 h) on L540cy; conditions: read-out: L540cy IC50
Experimental: as §1, §2

[8] = In vitro potency (CellTiter-Glo, 96 h) on Ls174T; conditions: read-out: Ls174T IC50
Experimental: as §1, §2

[9] = tested on: breast cancer cells (MDA-MB-231); assay: In vitro potency (CellTiter-Glo, 96 h) on MDA-MB-231; conditions: read-out: MDAMB 231 IC50
Experimental: as §1, §2

[10] = tested on: acute myeloid leukemia cells (MOLM-13); assay: In vitro potency (CellTiter-Glo, 96 h) on MOLM-13; conditions: read-out: MOLM-13 IC50
Experimental: as §1, §2

[11] = tested on: B-lymphocyte cancer cells (SU-DHL4); assay: In vitro potency (CellTiter-Glo, 96 h) on SU-DHL4; conditions: read-out: SU-DHL-4 IC50
Experimental: as §1, §2

[12] = Homo sapiens, 786-0, 96 h, CPT free drugs, CellTiter-Glo after 96 h exposure
[13] = Homo sapiens, A2058, 96 h, CPT free drugs, CellTiter-Glo after 96 h exposure
[14] = Homo sapiens, BXPC-3, 96 h, CPT free drugs, CellTiter-Glo after 96 h exposure
[15] = Homo sapiens, Calu-1, 96 h, CPT free drugs, CellTiter-Glo after 96 h exposure
[16] = CPT free drugs, CellTiter-Glo after 96 h exposure
[17] = 96 h, CPT free drugs, CellTiter-Glo after 96 h exposure
[18] = Homo sapiens, KARPAS-299, 96 h, CPT free drugs, CellTiter-Glo after 96 h exposure
[19] = L540cy, 96 h, CPT free drugs, CellTiter-Glo after 96 h exposure
[20] = Homo sapiens, LS174T, CPT free drugs, CellTiter-Glo after 96 h exposure
[21] = Homo sapiens, MDA-MB-231, 96 h, CPT free drugs, CellTiter-Glo after 96 h exposure
[22] = Homo sapiens, MOLM-13, 96 h, CPT free drugs, CellTiter-Glo after 96 h exposure
[23] = Homo sapiens, SU-DHL-4, 96 h, CPT free drugs, CellTiter-Glo after 96 h exposure

| Compound | IC50 [1, 12] [nM] | IC50 (melanoma cells (A2058); [13]) [nM] | IC50 [2, 14] [nM] | IC50 [3, 15] [nM] | IC50 [4, 16] [nM] | IC50 [5, 17] [nM] | IC50 [6, 18] [nM] | IC50 [7, 19] [nM] | IC50 [8, 20] [nM] | IC50 [9, 21] [nM] | IC50 [10, 22] [nM] | IC50 [11, 23] [nM] | IC50 ([1]; Homo sapiens, 786-0, 96 h) [nM] | IC50 (melanoma cells (A2058); Homo sapiens, A2058, 96 h) [nM] | IC50 ([2]; Homo sapiens, BXPC-3, 96 h) [nM] | IC50 ([3]; Homo sapiens, Calu-1, 96 h) [nM] | IC50 [4] [nM] | IC50 ([6]; Homo sapiens, KARPAS-299, 96 h) [nM] | IC50 ([7]; L540cy, 96 h) [nM] | IC50 ([8]; Homo sapiens, LS174T, 96 h) [nM] | other results |
| --- | --- | --- | --- | --- | --- | --- | --- | --- | --- | --- | --- | --- | --- | --- | --- | --- | --- | --- | --- | --- | --- |
| CC[C@@]1(O)C(=O)OCc2c1cc1n(c2=O)Cc2c-1nc1cc(F)c(C)c(C3=CCN(C(C)=O)CC3)c1c2CN [Compound 6k] | 80 | 17 | 95 | 170 | 7 | 11 | 40 | 16 | 46 | 368 | 13 | 21 |  |  |  |  |  |  |  |  |  |
| CC[C@@]1(O)C(=O)OCc2c1cc1n(c2=O)Cc2c-1nc1cc3c(c(Br)c1c2CN)OCO3 [Compound 5c] |  |  |  |  |  |  |  |  |  |  |  |  | 1 | 5 | 8 | 4 | 0.3 | 1 | 0.8 | 6 | IC50 ([9]; Homo sapiens, MDA-MB-231, 96 h): 2 nM; IC50 ([10]; Homo sapiens, MOLM-13, 96 h): 2 nM; IC50 ([11]; Homo sapiens, SU-DHL-4, 96 h): 0.5 nM |
| CC[C@@]1(O)C(=O)OCc2c1cc1n(c2=O)Cc2c-1nc1cc(F)c(C)c(-c3ccccc3)c1c2CN [Compound 6j] | 12 | 10 | 30 | 36 | 4 | 5 | 9 | 9 | 12 | 103 | 15 | 14 |  |  |  |  |  |  |  |  |  |
| CC[C@@]1(O)C(=O)OCc2c1cc1n(c2=O)Cc2c-1nc1cc(F)c(C)c(C3=CCCC3)c1c2CN [Compound 6c] | 4 | 5 | 5 | 15 | 1 | 2 | 3 | 3 | 18 | 7 | 4 | 2 |  |  |  |  |  |  |  |  |  |
| CC[C@@]1(O)C(=O)OCc2c1cc1n(c2=O)Cc2c-1nc1cc(F)c(C)c(C=C(C)C)c1c2CN [Compound 6, (S)-11-(aminomethyl)-4-ethyl-8-fluoro-4-hydroxy-9-methyl-10-(2-methylprop-1-en-1-yl)-1,12-dihydro-14H-pyrano[3′,4′:6,7]indolizino[1,2-b]quinoline-3,14(4H)-dione] |  |  |  |  |  |  |  |  |  |  |  |  | 5 | 5 | 8 | 17 | 1 | 4 | 4 | 21 | IC50 ([5]; 96 h): 3 nM; IC50 ([9]; Homo sapiens, MDA-MB-231, 96 h): 7 nM; IC50 ([10]; Homo sapiens, MOLM-13, 96 h): 4 nM; IC50 ([11]; Homo sapiens, SU-DHL-4, 96 h): 2 nM |
| CC[C@@]1(O)C(=O)OCc2c1cc1n(c2=O)Cc2c-1nc1cc3c(cc1c2CNC(=O)OCc1ccc(NC(=O)[C@H](CCCCN)NC(=O)[C@@H](NC(=O)CCOCCOCCOCCOCCNC(=O)CCN2C(=O)C=CC2=O)C(C)C)cc1)CCO3 [Compound 14, [4-[[(2S)-6-amino-2-[[(2S)-2-[3-[2-[2-[2-[2-[3-(2,5-dioxopyrrol-1-yl)propanoylamino]ethoxy]ethoxy]ethoxy]ethoxy]propanoylamino]-3-methyl-butanoyl]amino]hexanoyl]amino]phenyl]methyl N-[[(5S)-5-ethyl-5-hydroxy-6,10-dioxo-7,20-dioxa-11,24-diazahexacyclo[11.11.0.02,11.04,9.015,23.017,21]tetracosa-1(13),2,4(9),14,16,21,23-heptaen-14-yl]methyl]carbamate;2,2,2-trifluoroacetic acid] |  |  |  |  |  |  |  |  |  |  |  |  |  |  |  |  |  |  |  |  | IC50 [1, 16]: 4 nM; IC50 (melanoma cells (A2058); [16]): 2 nM; IC50 [2, 16]: 6 nM; IC50 [3, 16]: 9 nM; IC50 [5, 16]: 1 nM; IC50 [6, 16]: 4 nM; IC50 [7, 16]: 2 nM; IC50 [8, 16]: 3 nM; IC50 [9, 16]: 5 nM; IC50 [10, 16]: 22 nM; IC50 [11, 16]: 1 nM |

Reference: patent US20230381321A1, “CAMPTOTHECIN CONJUGATES” (priority 2022, published 2023)
